From US20240018157A1, “CYCLIC COMPOUNDS AND METHODS OF USING SAME” (Schrödinger, Inc., priority 2019, published 2024)

Columns and labels:
[1] = test system: IL10 secretion, OCI-LY10 cells; experiment: Human IL10 secretion assay, Assay 1 (HTRF); type: cell-based; settings: 24 h incubation, read-out: IL-10 Secretion IC50 [nM] Assay 1
Method: IL10 is one of the cytokines that are regulated via activation of NF-kB signaling. For example, in ABC-DLBCL cell lines, the activated NF-kB signaling leads to increased IL10 secretion. Inhibition of NF-kB signaling has been shown leading to decreased IL10 secretion.
Assay 1: OCI-LY10 cells were seeded in IMEM supplemented with 20% fetal bovine serum at 3×10^5 cells per well in 96-well round bottom plates (Corning 3799, Corning), treated with 100 nL of 3-fold serial compound dilutions, starting at 10 mM. The final vehicle concentration was 0.1% DMSO in all wells. After 24 h incubation, the cells were transferred to 96-PCR plates (Axygen: PCR-96-FLT-C) and centrifuged, then 16 μL of cell culture media was transferred to HTRF plates and IL10 levels were measured using human IL-10 Assay Kits (Cisbio) using HTRF format. The signals were transformed to percentage of remaining activity by using the high control (HC, median of signal from wells containing cells treated with DMSO) and low control (LC, median of signal from wells with no cells). IC50 values (nM) were determined using 4-parametric curve-fitting and Hill coefficient were obtained using Graph Pad Prism (Graph Pad software, Inc, USA) with non-linear regression analysis.

[2] = molecular target: full-length MALT1 protein His-MALT1(1-824) (Homo sapiens (Human), UniProt Q9UDY8); experiment: MALT1 protease assay, Assay 2 (1 nM MALT1, Ac-LRSR-AMC substrate); type: biochemical; settings: 1 nM MALT1, 50 μM Ac-LRSR-AMC, 2 h pre-incubation, 8 hr incubation at RT
Method: MALT1 protease activity was assessed in an in vitro assay using a tetrapeptide as substrate and full-length MALT1 protein His-MALT1(1-824) purified from baculovirus-infected insect cells.
The final assay buffer includes 1 nM (Assay 2) or 2 nM (Assay 1) of MALT1 full-length protein, 50 μM Ac-LRSR-AMC substrate, 50 mM Tris pH 7.5, 600 mM Sodium Citrate, 1 mM DTT, 1 mM EDTA, and 0.05% BSA in 384-well plate format using black microtiter square well plates (Optiplate 384-F, Perkin Elmer).
Test compounds were dissolved in 100% DMSO at stock of 10 mM, with final DMSO concentration 0.1%. Test compounds were pre-incubated with MALT1 protein for 2 h at room temperature. Substrate was added after the pre-incubation and fluorescence signal was measured using Envision at excitation 355 nm and emission 460 nm after 8 hr incubation at RT.
The fluorescence units were transformed to percentage of remaining activity by using the high control (HC, median of fluorescence signal from wells containing MALT1 protein, substrate, and DMSO) and low control (LC, median of fluorescence signal from wells with substrate only) with the formula below: […]
IC50 and Hill coefficient were obtained using Graph Pad Prism (Graph Pad software, Inc, USA) with non-linear regression analysis.

full-length MALT1 protein His-MALT1(1-824), sequence (Q9UDY8 whole entry): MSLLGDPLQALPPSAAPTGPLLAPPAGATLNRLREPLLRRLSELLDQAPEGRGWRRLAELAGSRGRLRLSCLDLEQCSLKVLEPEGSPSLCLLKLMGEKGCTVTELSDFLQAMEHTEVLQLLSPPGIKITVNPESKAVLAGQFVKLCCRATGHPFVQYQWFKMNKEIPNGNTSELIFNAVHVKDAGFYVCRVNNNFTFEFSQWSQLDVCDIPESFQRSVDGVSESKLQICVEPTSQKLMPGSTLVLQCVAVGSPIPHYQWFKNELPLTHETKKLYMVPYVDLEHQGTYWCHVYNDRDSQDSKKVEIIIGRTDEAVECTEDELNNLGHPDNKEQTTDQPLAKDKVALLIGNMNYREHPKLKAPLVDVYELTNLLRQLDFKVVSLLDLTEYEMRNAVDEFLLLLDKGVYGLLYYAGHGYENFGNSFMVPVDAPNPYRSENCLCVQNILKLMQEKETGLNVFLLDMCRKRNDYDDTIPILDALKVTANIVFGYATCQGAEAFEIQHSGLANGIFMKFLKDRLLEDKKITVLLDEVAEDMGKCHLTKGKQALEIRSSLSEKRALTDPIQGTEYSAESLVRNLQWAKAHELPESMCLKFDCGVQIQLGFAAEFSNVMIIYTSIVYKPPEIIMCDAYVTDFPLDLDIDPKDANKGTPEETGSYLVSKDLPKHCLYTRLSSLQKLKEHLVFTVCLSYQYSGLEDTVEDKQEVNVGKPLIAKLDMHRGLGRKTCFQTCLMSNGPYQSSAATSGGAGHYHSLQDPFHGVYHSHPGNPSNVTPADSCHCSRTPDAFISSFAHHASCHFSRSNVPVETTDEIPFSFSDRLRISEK

Compound | IC50 [1] [nM] | IC50 [2] [nM]
CC1(C)CCN(C(=O)Nc2cnc(-n3nccn3)c(Cl)c2)c2cnc3cc(Cl)nn3c21 [compound 7, 2-chloro-N-(5-chloro-6-(2H-1,2,3-triazol-2-yl)pyridin-3-yl)-9,9-dimethyl-8,9-dihydropyrazolo[1,5-a]pyrido[2,3-e]pyrimidine-6(7H)-carboxamide] | 10 to 100 | –
Cc1cc2ncc3c(n2n1)C(C(F)(F)F)CCN3C(=O)Nc1cnc(-n2nccn2)c(Cl)c1 (centres unmarked) [compound 10, N-(5-chloro-6-(2H-1,2,3-triazol-2-yl)pyridin-3-yl)-2-methyl-9-(trifluoromethyl)-8,9-dihydropyrazolo[1,5-a]pyrido[2,3-e]pyrimidine-6(7H)-carboxamide] | 100 to 1000 | –
COc1ncc(NC(=O)N2C[C@@](C)(C(F)(F)F)c3c2cnc2cc(Cl)nn32)cc1Cl [compound 18, (R)-2-chloro-N-(5-chloro-6-methoxypyridin-3-yl)-8-methyl-8-(trifluoromethyl)-7,8-dihydro-6H-pyrazolo[1,5-a]pyrrolo[2,3-e]pyrimidine-6-carboxamide] | 10 to 100 | –
COc1ccc(NC(=O)N2C[C@@](C)(C(F)(F)F)c3c2cnc2cc(Cl)nn32)cc1Cl [compound 19, (R)-2-chloro-N-(3-chloro-4-methoxyphenyl)-8-methyl-8-(trifluoromethyl)-7,8-dihydro-6H-pyrazolo[1,5-a]pyrrolo[2,3-e]pyrimidine-6-carboxamide] | 100 to 1000 | –
Cc1cc(NC(=O)N2C[C@@](C)(C(F)(F)F)c3c2cnc2cc(Cl)nn32)cnc1-n1nccn1 [compound 21, (R)-2-chloro-8-methyl-N-(5-methyl-6-(2H-1,2,3-triazol-2-yl)pyridin-3-yl)-8-(trifluoromethyl)-7,8-dihydro-6H-pyrazolo[1,5-a]pyrrolo[2,3-e]pyrimidine-6-carboxamide] | 10 to 100 | –
C[C@@]1(C(F)(F)F)CN(C(=O)Nc2ccnc(C(F)(F)F)c2)c2cnc3cc(Cl)nn3c21 [compound 27, (R)-2-chloro-8-methyl-8-(trifluoromethyl)-N-(2-(trifluoromethyl)pyridin-4-yl)-7,8-dihydro-6H-pyrazolo[1,5-a]pyrrolo[2,3-e]pyrimidine-6-carboxamide] | 10 to 100 | –
C[C@@]1(C(F)(F)F)CN(C(=O)Nc2cnc(-n3ccnn3)c(C(F)F)c2)c2cnc3cc(Cl)nn3c21 [compound 36, (R)-2-chloro-N-(5-(difluoromethyl)-6-(1H-1,2,3-triazol-1-yl)pyridin-3-yl)-8-methyl-8-(trifluoromethyl)-7,8-dihydro-6H-pyrazolo[1,5-a]pyrrolo[2,3-e]pyrimidine-6-carboxamide] | 10 to 100 | –
C[C@@]1(C(F)(F)F)CN(C(=O)Nc2cnc(-n3nccn3)c(C#N)c2)c2cnc3cc(Cl)nn3c21 [compound 41, (R)-2-chloro-N-(5-cyano-6-(2H-1,2,3-triazol-2-yl)pyridin-3-yl)-8-methyl-8-(trifluoromethyl)-7,8-dihydro-6H-pyrazolo[1,5-a]pyrrolo[2,3-e]pyrimidine-6-carboxamide] | 10 to 100 | –
C[C@@]1(C(F)(F)F)CN(C(=O)Nc2cnc(-n3ccnn3)c(C(F)(F)F)c2)c2cnc3cc(Cl)nn3c21 [compound 44, (R)-N-(6-(1H-1,2,3-triazol-1-yl)-5-(trifluoromethyl)pyridin-3-yl)-2-chloro-8-methyl-8-(trifluoromethyl)-7,8-dihydro-6H-pyrazolo[1,5-a]pyrrolo[2,3-e]pyrimidine-6-carboxamide] | 10 to 100 | –
C[C@@]1(C(F)(F)F)CN(C(=O)Nc2cnc(-n3cc(O)cn3)c(Cl)c2)c2cnc3cc(Cl)nn3c21 [compound 48] | 10 to 100 | –
C[C@@]1(C(F)(F)F)CN(C(=O)Nc2cnc(-n3cc(CO)cn3)c(Cl)c2)c2cnc3cc(Cl)nn3c21 [compound 57, (R)-2-chloro-N-(5-chloro-6-(4-(hydroxymethyl)-1H-pyrazol-1-yl)pyridin-3-yl)-8-methyl-8-(trifluoromethyl)-7,8-dihydro-6H-pyrazolo[1,5-a]pyrrolo[2,3-e]pyrimidine-6-carboxamide] | 10 to 100 | –
Cc1cc(NC(=O)N2C[C@@](C)(C(F)(F)F)c3c2cnc2cc(Cl)nn32)cc(OC[C@H](C)N)n1 [compound 58, (R)-N-(2-((S)-2-aminopropoxy)-6-methylpyridin-4-yl)-2-chloro-8-methyl-8-(trifluoromethyl)-7,8-dihydro-6H-pyrazolo[1,5-a]pyrrolo[2,3-e]pyrimidine-6-carboxamide] | – | 10 to 100
C[C@@]1(C(F)(F)F)CN(C(=O)Nc2ccnc(C(F)F)c2)c2cnc3cc(Cl)nn3c21 [compound 60, (R)-2-chloro-N-(2-(difluoromethyl)pyridin-4-yl)-8-methyl-8-(trifluoromethyl)-7,8-dihydro-6H-pyrazolo[1,5-a]pyrrolo[2,3-e]pyrimidine-6-carboxamide] | 10 to 100 | –
COc1c(Cl)cc(NC(=O)N2C[C@@](C)(C(F)(F)F)c3c2cnc2cc(Cl)nn32)nc1O[C@H]1CCNC1 [compound 63, (R)-2-chloro-N-(4-chloro-5-methoxy-6-(((S)-pyrrolidin-3-yl)oxy)pyridin-2-yl)-8-methyl-8-(trifluoromethyl)-7,8-dihydro-6H-pyrazolo[1,5-a]pyrrolo[2,3-e]pyrimidine-6-carboxamide] | 10 to 100 | –
COc1cnc(C(F)(F)F)cc1NC(=O)N1C[C@@](C)(C(F)(F)F)c2c1cnc1cc(Cl)nn21 [compound 66, (R)-2-chloro-N-(5-methoxy-2-(trifluoromethyl)pyridin-4-yl)-8-methyl-8-(trifluoromethyl)-7,8-dihydro-6H-pyrazolo[1,5-a]pyrrolo[2,3-e]pyrimidine-6-carboxamide] | 100 to 1000 | –
CC(C)(O)c1cc(NC(=O)N2C[C@@](C)(C(F)(F)F)c3c2cnc2cc(Cl)nn32)cc(C(F)(F)F)n1 [compound 78, (R)-2-chloro-N-(2-(2-hydroxypropan-2-yl)-6-(trifluoromethyl)pyridin-4-yl)-8-methyl-8-(trifluoromethyl)-7,8-dihydro-6H-pyrazolo[1,5-a]pyrrolo[2,3-e]pyrimidine-6-carboxamide] | – | 100 to 1000
COCc1cnn(-c2ncc(NC(=O)N3C[C@@](C)(C(F)(F)F)c4c3cnc3cc(Cl)nn43)cc2Cl)n1 [compound 79, (R)-2-chloro-N-(5-chloro-6-(4-(methoxymethyl)-2H-1,2,3-triazol-2-yl)pyridin-3-yl)-8-methyl-8-(trifluoromethyl)-7,8-dihydro-6H-pyrazolo[1,5-a]pyrrolo[2,3-e]pyrimidine-6-carboxamide] | 10 to 100 | –
CC(O)c1cc2ncc3c(n2n1)C(C)(C(F)(F)F)CN3C(=O)Nc1cnc(-n2nccn2)c(Cl)c1 (centres unmarked) [compound 80, N-(5-chloro-6-(2H-1,2,3-triazol-2-yl)pyridin-3-yl)-2-(1-hydroxyethyl)-8-methyl-8-(trifluoromethyl)-7,8-dihydro-6H-pyrazolo[1,5-a]pyrrolo[2,3-e]pyrimidine-6-carboxamide] | – | 100 to 1000
COc1nc(OC2CN(C)C2)c(NC(=O)N2C[C@@](C)(C(F)(F)F)c3c2cnc2cc(Cl)nn32)cc1Cl [compound 81, (R)-2-chloro-N-(5-chloro-6-methoxy-2-((1-methylazetidin-3-yl)oxy)pyridin-3-yl)-8-methyl-8-(trifluoromethyl)-7,8-dihydro-6H-pyrazolo[1,5-a]pyrrolo[2,3-e]pyrimidine-6-carboxamide] | – | 100 to 1000
C[C@@]1(C(F)(F)F)CN(C(=O)Nc2cc(N=S(C)(C)=O)nc(C(F)(F)F)c2)c2cnc3cc(Cl)nn3c21 [compound 83] | 100 to 1000 | –
C[C@@]1(C(F)(F)F)CN(C(=O)Nc2cnc(N=S(C)(C)=O)c(Cl)c2)c2cnc3cc(Cl)nn3c21 [compound 85] | 100 to 1000 | –
C[C@]1(C(F)(F)F)CN(C(=O)Nc2cnc(-n3nccn3)c(C#N)c2)c2cnc3cc(F)nn3c21 [compound 90, (S)-N-(5-cyano-6-(2H-1,2,3-triazol-2-yl)pyridin-3-yl)-2-fluoro-8-methyl-8-(trifluoromethyl)-7,8-dihydro-6H-pyrazolo[1,5-a]pyrrolo[2,3-e]pyrimidine-6-carboxamide] | – | 10 to 100
C[C@@]1(C(F)(F)F)CN(C(=O)Nc2cc(NC3COC3)nc(C(F)(F)F)c2)c2cnc3cc(Cl)nn3c21 [compound 99, (R)-2-chloro-8-methyl-N-(2-(oxetan-3-ylamino)-6-(trifluoromethyl)pyridin-4-yl)-8-(trifluoromethyl)-7,8-dihydro-6H-pyrazolo[1,5-a]pyrrolo[2,3-e]pyrimidine-6-carboxamide] | – | 100 to 1000
